According to ChEMBL document CHEMBL1287690, “Mycoepoxydiene, a fungal polyketide, induces cell cycle arrest at the G2/M phase and apoptosis in HeLa cells” (Bioorg Med Chem Lett, 2010):
The source made the active and inactive calls. No cut-off for these calls is given here.

Tests used:
KB = assay: Cytotoxicity against human KB cells by MTT assay; type: functional, cell-based
AGS = assay: Growth inhibition in human AGS cells after 72 hrs by MTT assay; type: functional, cell-based
HT-29 = assay: Growth inhibition in human HT-29 cells after 72 hrs by MTT assay; type: functional, cell-based
DU-145 = assay: Growth inhibition in human DU145 cells after 72 hrs by MTT assay; type: functional, cell-based
MDA-MB-435 = assay: Growth inhibition in human MDA-MB-435 cells after 72 hrs by MTT assay; type: functional, cell-based
MDA-MB-231 = assay: Growth inhibition in human MDA-MB-231 cells after 72 hrs by MTT assay; type: functional, cell-based
MCF7 = assay: Growth inhibition in human MCF7 cells after 72 hrs by MTT assay; type: functional, cell-based
U2OS = assay: Growth inhibition in human U2OS cells after 72 hrs by MTT assay; type: functional, cell-based
HeLa [1] = assay: Growth inhibition in human HeLa cells after 72 hrs by MTT assay; type: functional, cell-based
OVCAR-3 = assay: Growth inhibition in human OVCAR-3 cells after 72 hrs by MTT assay; type: functional, cell-based
A549 = assay: Growth inhibition in human A549 cells after 72 hrs by MTT assay; type: functional, cell-based
HeLa [2] = assay: Cytotoxicity against human HeLa cells after 72 hrs by MTT assay; type: functional, cell-based
HeLa [3] = assay: Induction of apoptosis in human HeLa cells assessed as increase of dead cells after 24 hrs using propidium iodide staining by flow cytometry; type: functional, cell-based
HeLa [4] = assay: Induction of apoptosis in human HeLa cells assessed as increase of dead cells at 11 uM using propidium iodide staining by flow cytometry; type: functional, cell-based; details: TDE = time-dependent effect
HeLa [5] = assay: Induction of apoptosis in human HeLa cells assessed as increase of dead cells at 12 uM using propidium iodide staining by flow cytometry; type: functional, cell-based; details: TDE = time-dependent effect
HeLa [6] = assay: Induction of apoptosis in human HeLa cells assessed as morphological changes at 14 to 21 uM after 9 hrs by phase contrast microscopic analysis; type: functional, cell-based
HeLa [7] = assay: Induction of apoptosis in human HeLa cells assessed as increase in actin stress fiber formation across cell body after 12 hrs by phase contrast microscopic analysis; type: functional, cell-based; details: TDE = time-dependent effect
HeLa [8] = assay: Induction of apoptosis in human HeLa cells assessed as increase in actin stress fiber formation across cell body at 14 to 21 uM by phase contrast microscopic analysis; type: functional, cell-based; details: TDE = time-dependent effect
HeLa [9] = assay: Cell cycle arrest in human HeLa cells assessed as accumulation at G2/M phase at 14 uM after 12 hrs using propidium iodide staining by flow cytometry relative to control; type: functional
HeLa [10] = assay: Induction of apoptosis in human HeLa cells assessed as reduction in expression of Cdc2 at 14 to 21 uM by immunoblot assay; type: functional, cell-based; details: TDE = time-dependent effect
HeLa [11] = assay: Induction of apoptosis in human HeLa cells assessed as reduction in expression of Cdc2 after 12 hrs by immunoblot assay; type: functional, cell-based
HeLa [12] = assay: Induction of apoptosis in human HeLa cells assessed as reduction in expression of p34 after 12 hrs by immunoblot assay; type: functional, cell-based
HeLa [13] = assay: Induction of apoptosis in human HeLa cells assessed as reduction in expression of GADD45alpha after 12 hrs by immunoblot assay; type: functional, cell-based
HeLa [14] = assay: Induction of apoptosis in human HeLa cells assessed as reduction in expression of WEE1 after 12 hrs by immunoblot assay; type: functional, cell-based
HeLa [15] = assay: Induction of apoptosis in human HeLa cells assessed as reduction in expression of Myt1 after 12 hrs by immunoblot assay; type: functional, cell-based
HeLa [16] = assay: Induction of apoptosis in human HeLa cells assessed as reduction in expression of chk1 after 12 hrs by immunoblot assay; type: functional, cell-based
HeLa [17] = assay: Induction of apoptosis in human HeLa cells assessed as reduction in expression of chk2 after 12 hrs by immunoblot assay; type: functional, cell-based
HeLa [18] = assay: Induction of apoptosis in human HeLa cells assessed as increase in production of p21 at 14 to 21 uM after 12 hrs by immunoblot assay; type: functional, cell-based
HeLa [19] = assay: Induction of apoptosis in human HeLa cells assessed as increase in production of cyclin B1 at 14 to 21 uM after 12 hrs by immunoblot assay; type: functional, cell-based
HeLa [20] = assay: Induction of apoptosis in human HeLa cells assessed as increase in cytochrome C in cytoplasm at 21 uM after 20 hrs by Western blotting; type: functional, cell-based
[21] = molecular target: c-Jun N-terminal kinase, JNK (Homo sapiens) (UniProt P45983+P53779+P45984); assay: Induction of JNK phosphorylation at Thr183/Tyr185 in human HeLa cells at 21 uM after 30 mins by Western blotting; type: cell-based
[22] = molecular target: MAP kinase p38 (Homo sapiens) (UniProt O15264+Q15759+Q16539+P53778); assay: Induction of p38 phosphorylation at Thr180/Tyr182 in human HeLa cells assessed at 21 uM after 30 mins by Western blotting; type: cell-based
HeLa [23] = assay: Induction of apoptosis in human HeLa cells assessed cell death up to 20 uM after 48 hrs using propidium iodide staining by flow cytometry in presence of JNK inhibitor 2 treated 1 hr before compound challenge; type: functional, cell-based
HeLa [24] = assay: Induction of apoptosis in human HeLa cells assessed cell death up to 20 uM after 48 hrs using propidium iodide staining by flow cytometry in presence of SB-203580 treated 1 hr before compound challenge; type: functional, cell-based
HeLa [25] = assay: Induction of apoptosis in human HeLa cells assessed as increase in cleavage fragments of p17 and p12 at 21 uM after 12 to 28 hrs by Western blotting; type: functional, cell-based
HeLa [26] = assay: Induction of apoptosis in human HeLa cells assessed as increase in caspase-3 cleavage at 21 uM after 12 to 28 hrs by Western blotting in presence of z-VAD-fmk; type: functional, cell-based
HeLa [27] = assay: Induction of apoptosis in human HeLa cells assessed as cell death in presence of 25 uM of […] z-VAD-fmk; type: functional, cell-based
HeLa [28] = assay: Induction of apoptosis in human HeLa cells assessed as disruption of tubulin cytoskeleton at 14 to 21 uM by phase contrast microscopic analysis; type: functional, cell-based
HeLa [29] = assay: Cell cycle arrest in human HeLa cells assessed as accumulation at G2/M phase at 21 uM after 12 hrs using propidium iodide staining by flow cytometry relative to control; type: functional
HeLa [30] = assay: Cell cycle arrest in human HeLa cells assessed as accumulation at sub-G1 phase at 14 uM after 36 hrs using propidium iodide staining by flow cytometry relative to control; type: functional
HeLa [31] = assay: Cell cycle arrest in human HeLa cells assessed as accumulation at sub-G1 phase at 21 uM after 36 hrs using propidium iodide staining by flow cytometry relative to control; type: functional
HeLa [32] = assay: Cell cycle arrest in human HeLa cells assessed as accumulation at G2/M phase at 14 uM after 36 hrs using propidium iodide staining by flow cytometry relative to control; type: functional
HeLa [33] = assay: Cell cycle arrest in human HeLa cells assessed as accumulation at G2/M phase at 21 uM after 36 hrs using propidium iodide staining by flow cytometry relative to control; type: functional
HeLa [34] = assay: Induction of apoptosis in human HeLa cells assessed as reduction in expression of p34 at 14 to 21 uM by immunoblot assay; type: functional, cell-based; details: TDE = time-dependent effect
HeLa [35] = assay: Induction of apoptosis in human HeLa cells assessed as reduction in expression of GADD45alpha at 14 to 21 uM by immunoblot assay; type: functional, cell-based; details: TDE = time-dependent effect
HeLa [36] = assay: Induction of apoptosis in human HeLa cells assessed as reduction in expression of WEE1 at 14 to 21 uM by immunoblot assay; type: functional, cell-based; details: TDE = time-dependent effect
HeLa [37] = assay: Induction of apoptosis in human HeLa cells assessed as reduction in expression of Myt1 at 14 to 21 uM by immunoblot assay; type: functional, cell-based; details: TDE = time-dependent effect
HeLa [38] = assay: Induction of apoptosis in human HeLa cells assessed as reduction in expression of chk1 at 14 to 21 uM by immunoblot assay; type: functional, cell-based; details: TDE = time-dependent effect
HeLa [39] = assay: Induction of apoptosis in human HeLa cells assessed as reduction in expression of chk2 at 14 to 21 uM by immunoblot assay; type: functional, cell-based; details: TDE = time-dependent effect
HeLa [40] = assay: Induction of JNK expression in human HeLa cells at 21 uM after 8 hrs by Western blotting; type: functional, cell-based
HeLa [41] = assay: Induction of p38 expression in human HeLa cells at 21 uM after 8 hrs by Western blotting; type: functional, cell-based
HeLa [42] = assay: Induction of apoptosis in human HeLa cells assessed as increase in PARP cleavage at 21 uM after 12 to 28 hrs by Western blotting; type: functional, cell-based

SMILES: CC(=O)O[C@H]1C=CC(=O)O[C@H]1[C@@H]1[C@H](C)[C@H]2C=CC=C[C@@H]1O2 [MYCOEPOXYDIENE]
- IC50 (KB): < 21.5 µM
- growth inhibition (GI) (AGS): Active
- growth inhibition (GI) (HT-29): Active
- growth inhibition (GI) (DU-145): Active
- growth inhibition (GI) (MDA-MB-435): Active
- growth inhibition (GI) (MDA-MB-231): Active
- growth inhibition (GI) (MCF7): Active
- growth inhibition (GI) (U2OS): Active
- growth inhibition (GI) (HeLa [1]): Active
- growth inhibition (GI) (OVCAR-3): Active
- growth inhibition (GI) (A549): Active
- IC50 (HeLa [2]): 16.8 µM
- Activity (HeLa [3]): Dose-dependent effect
- Activity (HeLa [4]): tde
- Activity (HeLa [5]): tde
- Activity (HeLa [6]): Active
- Activity (HeLa [7]): tde
- Activity (HeLa [8]): tde
- Activity (HeLa [9]): 40.9%
- Activity (HeLa [10]): tde
- Activity (HeLa [11]): Dose-dependent effect
- Activity (HeLa [12]): Dose-dependent effect
- Activity (HeLa [13]): Dose-dependent effect
- Activity (HeLa [14]): Dose-dependent effect
- Activity (HeLa [15]): Dose-dependent effect
- Activity (HeLa [16]): Dose-dependent effect
- Activity (HeLa [17]): Dose-dependent effect
- Activity (HeLa [18]): Active
- Activity (HeLa [19]): Active
- Activity (HeLa [20]): Active
- Activity [21]: Active
- Activity [22]: Active
- Activity (HeLa [23]): Active
- Activity (HeLa [24]): Active
- Activity (HeLa [25]): Active
- Activity (HeLa [26]): inactive
- Activity (HeLa [27]): inactive
- Activity (HeLa [28]): Dose-dependent effect
- Activity (HeLa [29]): 47.5%
- Activity (HeLa [30]): 4.8%
- Activity (HeLa [31]): 23.3%
- Activity (HeLa [32]): 31.4%
- Activity (HeLa [33]): 31.3%
- Activity (HeLa [34]): tde
- Activity (HeLa [35]): tde
- Activity (HeLa [36]): tde
- Activity (HeLa [37]): tde
- Activity (HeLa [38]): tde
- Activity (HeLa [39]): tde
- Activity (HeLa [40]): inactive
- Activity (HeLa [41]): inactive
- Activity (HeLa [42]): Active
